# Assay results from patent publication US9930893B2, “Inhibitors of DXP synthase and methods of use thereof” (The Johns Hopkins University, priority 2014, dated 2018).
# Like-named read-outs stand apart in the source and are kept apart here.
# How the values were obtained:
# [1] = molecular target: T1, E. coli DXP synthase (Escherichia coli, UniProt P77488); assay: biochemical
# T1 construct: made in house
# Procedure: FIG. 4A, FIG. 4B, and FIG. 4C are charts showing competitive inhibition of DXP synthase by pentylacetylphosphonate (PentAP; FIG. 4A), hexylacetylphosphonate (HexAP; FIG. 4B), and octylacetyl phosphonate (OctAP; FIG. 4C). Inhibition assays were performed as previously described^[18], [40]). […] Pyruvate concentration was varied from 12-240 μM and acetylphosphonate concentration was varied: 0 μM (∘), 10 μM (●), 25 μM (□) and 50 μM (▪). Experiments were performed in triplicate, and data were subjected to non-linear regression analysis for Ki determinations (GraphPad Prism). Representative Lineweaver-Burk plots (GraFit from Erithacus Software) are shown for PentAP (FIG. 4A), HexAP (FIG. 4B) and OctAP (FIG. 4C) to illustrate the competitive inhibition mode with respect to pyruvate.
# Inhibition of DXP synthase was measured as previously described^[13], [18]. […] Acetylphosphonate concentration was varied from 0 to 250 μM. […] Experiments were performed in triplicate for BAP and in duplicate for iPrAP
# In order to evaluate the inhibitory activity of BnAP against DXP synthase, a continuous spectrophotometric coupled assay was used to measure formation of DXP by monitoring IspC consumption of NADPH (340 nm). ^[2] DXP synthase reaction mixtures (previously described) including BnAP (15, 30, and 60 μM), IspC (1 μM) and NADPH (100 μM) were pre-incubated at 37° C. for 5 minutes. Initial rates were measured after the reaction was initiated by the addition of DXP synthase. Inhibition of the coupling enzyme (IspC) by BnAP was not observed up to 1.5 mM. Experiments were performed in triplicate. Double reciprocal analysis of data was carried out using GraFit version 7 from Erithacus Software.
# [2] = test system: E. coli K-12 (BW25113); assay: Antimicrobial activity against E. coli K-12 grown in M9 minimal medium; assay type: cell-based; details: M9 minimal medium; preliminary
# Description: The product of DXP synthase, DXP, lies at a metabolic branchpoint. DXP serves as precursor not only for essential isoprenoids, but also is essential to central metabolism as a precursor to both thiamin diphosphate and pyridoxal phosphate. Thus, evaluation of antimicrobial activity of DXP synthase inhibitors in the standard, rich growth medium (CAMHB) which contains rescuing metabolites, likely underestimates the antimicrobial activities of these agents. Standard in vitro culture conditions may have poor predictive value for these agents in vivo; access to most nutrients is thought to be more difficult from the host than in nutrient rich media.
# [3] = molecular target: T1, E. coli DXP synthase; details: Table 5, value marked with reference superscript (previously reported); read-out: Ki^DXPS; cited from earlier work
# [4] = molecular target: T2, Porcine pyruvate dehydrogenase (PDH E1 subunit) (Sus scrofa, UniProt P29804); details: Table 5, value marked with reference superscript (previously reported); cited from earlier work
# T2 construct: Ki^PDH; μM); Ki^PDH
# T2 sequence (P29804 1-390): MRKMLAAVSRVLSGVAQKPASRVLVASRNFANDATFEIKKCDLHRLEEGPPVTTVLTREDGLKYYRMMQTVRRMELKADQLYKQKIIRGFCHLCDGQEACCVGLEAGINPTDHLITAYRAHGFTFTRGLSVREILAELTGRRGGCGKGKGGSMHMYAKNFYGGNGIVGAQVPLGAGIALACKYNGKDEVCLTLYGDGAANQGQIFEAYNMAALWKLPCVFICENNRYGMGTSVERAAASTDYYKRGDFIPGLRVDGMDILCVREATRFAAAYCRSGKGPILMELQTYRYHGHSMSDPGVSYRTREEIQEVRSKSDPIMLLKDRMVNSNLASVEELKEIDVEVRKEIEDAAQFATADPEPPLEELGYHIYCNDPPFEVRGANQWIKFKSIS
# [5] = molecular target: Porcine pyruvate dehydrogenase (PDH E1 subunit); details: Table 5, value marked with reference superscript; cited from earlier work
# [6] = test system: wild-type K-12 E. coli (ATCC: MG1655); assay: Antimicrobial activity against E. coli K-12 grown in CAMHB; assay type: cell-based
# Procedure: FIG. 7A and FIG. 7B are charts showing representative growth curves are shown for BAP (FIG. 7A) and BnAP (FIG. 7B). Alkylacetylphosphonates exert dose-dependent delay in E. coli K-12 (MG 1655) growth in CAMHB. Fractional growth (measured at 16 h, blue arrow) was determined relative to the no drug control. Standardized cell cultures were exposed to increasing concentrations of acetylphosphonate, and growth was determined by measuring the OD600 for a period of 16 hours. Acetylphosphonate concentration was varied from 0-5 mM: No drug (light blue), 0.08 mM (orange), 0.16 mM (gray), 0.31 mM (yellow), 0.63 mM (blue), 1.25 mM (green), 2.5 mM (dark blue) and 5.0 mM (brown).
# Thus, BnAP, PentAP, HexAP and OctAP, also shown to inhibit DXP synthase, were evaluated for antimicrobial activity against wild-type K-12 E. coli (ATCC: MG1655) grown in rich medium (CAMHB).
# [7] = molecular target: T3, yeast TK (Saccharomyces cerevisiae, UniProt P23254); details: ref [26]; cited from earlier work
# T3 sequence (P23254 1-680): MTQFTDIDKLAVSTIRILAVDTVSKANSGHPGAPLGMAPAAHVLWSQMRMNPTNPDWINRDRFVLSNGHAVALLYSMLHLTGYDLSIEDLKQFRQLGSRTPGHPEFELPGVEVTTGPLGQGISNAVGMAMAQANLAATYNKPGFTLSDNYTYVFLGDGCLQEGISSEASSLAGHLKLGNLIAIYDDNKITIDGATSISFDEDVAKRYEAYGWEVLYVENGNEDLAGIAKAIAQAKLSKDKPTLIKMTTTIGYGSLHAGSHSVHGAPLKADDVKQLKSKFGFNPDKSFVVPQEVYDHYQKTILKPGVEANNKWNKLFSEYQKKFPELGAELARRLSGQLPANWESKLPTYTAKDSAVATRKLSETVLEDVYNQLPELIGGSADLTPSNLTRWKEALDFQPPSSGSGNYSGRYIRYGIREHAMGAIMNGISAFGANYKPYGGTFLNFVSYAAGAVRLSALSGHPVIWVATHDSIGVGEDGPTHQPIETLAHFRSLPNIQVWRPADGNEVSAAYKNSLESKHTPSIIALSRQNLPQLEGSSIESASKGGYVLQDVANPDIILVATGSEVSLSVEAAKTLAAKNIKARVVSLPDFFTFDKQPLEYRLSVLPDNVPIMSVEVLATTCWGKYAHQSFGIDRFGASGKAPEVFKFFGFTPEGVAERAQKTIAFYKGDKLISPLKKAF
# [8] = molecular target: T4, E. coli DXP synthase (DXPS) (Escherichia coli, UniProt P77488); assay type: biochemical; details: 10-20 mM pyruvate, pH 8.0, 10% DMSO, 37° C., average ± SEM
# T4 construct: made in house
# T4 sequence (P77488 1-620): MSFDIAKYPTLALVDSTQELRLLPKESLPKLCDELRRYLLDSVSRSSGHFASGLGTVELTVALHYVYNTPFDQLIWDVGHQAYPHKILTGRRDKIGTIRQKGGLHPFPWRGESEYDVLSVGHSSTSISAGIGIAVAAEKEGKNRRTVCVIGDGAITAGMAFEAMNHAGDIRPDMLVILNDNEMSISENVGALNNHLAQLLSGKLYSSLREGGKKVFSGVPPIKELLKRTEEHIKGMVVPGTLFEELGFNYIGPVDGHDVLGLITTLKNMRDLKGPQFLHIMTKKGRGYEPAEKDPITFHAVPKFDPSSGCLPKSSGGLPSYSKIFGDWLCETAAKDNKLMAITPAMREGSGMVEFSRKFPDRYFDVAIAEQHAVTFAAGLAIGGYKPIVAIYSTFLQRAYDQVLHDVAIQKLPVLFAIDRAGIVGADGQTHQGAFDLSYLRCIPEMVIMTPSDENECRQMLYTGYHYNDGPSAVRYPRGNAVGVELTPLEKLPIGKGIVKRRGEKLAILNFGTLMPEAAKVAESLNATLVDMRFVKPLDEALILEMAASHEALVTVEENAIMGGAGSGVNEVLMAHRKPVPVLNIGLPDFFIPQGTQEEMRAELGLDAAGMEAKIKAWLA
# Procedure: Reaction mixtures containing 100 mM HEPES, pH 8.0, 2 mM MgCl2, 5 mM NaCl, 1 mM ThDP, 1 mg/mL BSA, 10-20 mM pyruvate, 10% DMSO, 0.5 mM 5 mM nitroso substrate were pre-incubated at 37° C. for 5 min. […] Aliquots of enzymatic mixture were removed at various time intervals and quenched into an equal volume of cold methanol. Quenched mixtures were incubated on ice for 20 minutes. Precipitated proteins were removed by centrifugation, and the supernatant was analyzed by HPLC with UV detection using the following conditions: Flow rate=3 mL/min; Solvent A: 100 mM NH4OAc, pH 4.6; Solvent B: acetonitrile; Method: 0-100% B over 10 min. New products formed were extracted from the supernatant using ethyl acetate (3×). […] Products were subsequently characterized by mass spectrometry.
# Reaction mixtures containing 100 mM HEPES, pH 8.0, 2 mM MgCl2, 5 mM NaCl, 1 mM ThDP, 1 mg/mL BSA, 10-20 mM pyruvate, 10% DMSO v/v, and 10-300 μM nitroso substrate were pre-incubated at 37° C. for 5 min. […] Substrate concentration as a function of time was determined from absorbance values using Beer's Law. Initial reaction rates were determined from the linear range of the reaction progress curve, usually within 1-3 min. Data analysis to determine kcat and Km for each alternative substrate was carried out using GraFit version 7 from Erithacus Software.
# [9] = test system: porcine PDH E1 subunit; assay type: biochemical
# Procedure: Reaction mixtures containing 100 mM HEPES, pH 8.0, 2 mM MgCl2, 5 mM NaCl, 1 mM ThDP, 1 mg/mL BSA, 10-20 mM pyruvate, 10% DMSO v/v, and 10-300 μM nitroso substrate were pre-incubated at 37° C. for 5 min. Enzymatic reactions were initiated by addition of 0.5-2 μM DXP synthase (or 0.1 units/ml PDH) and monitored spectrophotometrically by measuring the rate of disappearance of the nitroso substrate at its corresponding λmax. Substrate concentration as a function of time was determined from absorbance values using Beer's Law. Initial reaction rates were determined from the linear range of the reaction progress curve, usually within 1-3 min. Data analysis to determine kcat and Km for each alternative substrate was carried out using GraFit version 7 from Erithacus Software.
# [10] = molecular target: T5, DXP synthase (Escherichia coli, UniProt P77488); assay: Inhibition of DXP formation by nitroso substrates (HPLC-based assay); assay type: biochemical, E. coli; details: 30 μM D-GAP, 80 μM pyruvate, 37° C.; average ± SEM
# T5 construct: made in house
# T5 sequence (P77488 1-620): T4 sequence (P77488 1-620)
# Procedure: Enzyme reactions were initiated by addition of 0.1 μM DXP synthase. Aliquots (150 μL) of the enzymatic mixture were removed between 0.5 and 3 minutes and quenched into ice-cold methanol (150 μL). Precipitated protein was removed by centrifugation, and the supernatant was diluted in an equal volume of water. The nitroso substrate was removed by extraction into acetonitrile (3×), using a previously described freeze-extraction technique. ^[32] […] The derivatization mixtures were analyzed by HPLC as previously described. ^[19] To determine initial reaction rates in the presence of varying inhibitor concentration, the D,L-GAP and DXP hydrazone HPLC peak areas were measured, and the product concentration was determined as a percent of total peak area and plotted against reaction time. Initial rates GraFit version 7 from Erithacus Software was utilized to generate IC50 curves.
SMILES,"IC50 ([1]; pyruvate 95 μM, D-GAP 56 μM, error 95% Confidence Interval, read-out: IC50 (DXP synthase)) [µM]",MIC [2] [µM],Ki [3] [µM],Ki [4] [µM],Ki^PDH/Ki^DXPS [5],"antimicrobial effects against E. coli (MG1655) ([6]; FIG. 10, in words)","minimum inhibitory concentration (MIC90) ([6]; rich medium (CAMHB), 16 h) [µM]",substrate usage by yeast TK [7],"IC50 ([1]; Table 4, read-out: In vitro DXP syn IC50) [µM]",kcat ([8]; acceptor substrate turnover) [s⁻¹],Km ([8]; acceptor substrate) [µM],"Km ([9]; 10-20 mM pyruvate, pH 8.0, 37° C., average ± SEM) [µM]",Km^PDH/Km^DXPS ([9]; ratio porcine PDH E1 vs E. coli DXPS),IC50 [10] [µM]
"CCCCOP(=O)(O)C(C)=O [BAP, butylacetylphosphonate, reference compound]",24 ± 4,3100,5.6 ± 0.8,335 ± 8,60,dose-dependent inhibition,2500,,,,,,,
COc1ccc(CCOP(=O)([O-])C(C)=O)cc1.[Li+] [Compound 4],,,,,,,,not a substrate,194,0.015 ± 0.0017,54 ± 13,408 ± 60,7.5,844 ± 170
